Laboratory results from US9694015B2, “Methods for the treatment of locally advanced breast cancer” (Celgene Corporation, priority 2012, dated 2017).
Several values for one entry are separate records, joined by “and”; a condition that tells them apart may be missing. Equal values may be shown once.

Legend:
Ikaros = Ikaros (Homo sapiens (Human), UniProt Q13422); experiment: Ikaros expression by western blot at 6 hours; assay type: cell-based; conditions: western blot at 6 hours after the treatment
Aiolos [1] = target: T1, Aiolos (Homo sapiens (Human), UniProt Q9UKT9); experiment: Endogenous Aiolos in breast cancer cells (western blot); assay type: cell-based
Procedure: Cell lines (AU565, ZR 75-1, BT-474, EFM-192A, HCC1954, HCC70, MB436 and BT549) were maintained using standard cell culture techniques. For endogenous Aiolos expression, cells were seeded in a 6 well plate at 0.5×10^6 cells per well in a 3 mL volume of media. Cells were allowed to adhere to the plate overnight.
(§1) Cells were harvested and lysed in Pierce #89900 Ripa buffer containing 2× protease inhibitor cocktail from Pierce #78442. The lysate was applied to a QiaShredder to remove DNA. Total protein yield was measured using BioRad DC protein determination kit (Cat#500-0112). Lysates were stored at −80° C. until use. Samples were applied to BioRad Criterion PreCast gels, 10% (Bio-Rad#345-0010) and transferred to Bio-Rad Nitrocellulose/Filter Paper Sandwiches (#162-0233) for western blot analysis.

HIF1-α = experiment: Hypoxia-induced HIF1-α expression in solid tumor cell lines; assay type: cell-based; conditions: solid tumor cell lines (e.g., breast, ovarian, colorectal, HCC)
Aiolos [2] = target: T1, Aiolos; experiment: Overexpressed flag-Aiolos-myc fusion protein in AU565 cells (western blot); assay type: cell-based
Procedure: In some experiments, cell lines were transfected with an Aiolos overexpression vector using Lipofectamine reagent in a batch method. Cells were seeded in a 12 well plate at 1×10^5 cells in a 3 mL volume per well. Where specified, cells were pretreated with MG132 at 10 uM for 1 hour, or DMSO was added as a control.
as §1

Aiolos [3] = target: T1, Aiolos; experiment: Aiolos protein in myeloma cells; assay type: cell-based
Aiolos [4] = target: T1, Aiolos; experiment: Aiolos expression by western blot at 6 hours; assay type: cell-based; conditions: western blot at 6 hours after the treatment
IL-10 = experiment: LPS-stimulated hPBMC cytokine/chemokine production: IL-10 enhancement; assay type: cell-based, human
Text: (§2) Data provided are IC50 (μM) values for the indicated cytokines

[5] = GLP 28-day toxicity study in monkey; assay type: in vivo
tumor cells = experiment: Direct in vitro activity against tumor cells; assay type: cell-based
NFKB = NFKB DNA binding activity in DLBCL cells; assay type: cell-based
MCP-1 = experiment: LPS-stimulated hPBMC cytokine/chemokine production: MCP-1 enhancement; assay type: cell-based, human
Text: as §2

Aiolos [6] = target: T1, Aiolos; experiment: Aiolos expression with and without proteasome inhibitor; assay type: cell-based
Text: It appeared that the inhibitory effect correlates with compound's anti-proleferative activity in myeloma cells.

[7] = GLP 28-day toxicity study in rat; assay type: in vivo
RANTES = experiment: LPS-stimulated hPBMC cytokine/chemokine production: RANTES enhancement; assay type: cell-based, human
[8] = tested on: U87 (GBM), H929 (MM), WSU-DLCL2 and DOHH2 (NHL) xenografts; experiment: Xenografts, single agent; assay type: in vivo

Cc1nc2cccc(N)c2c(=O)n1C1CCC(=O)NC1=O (stereo not shown) [Compound A, 3-(5-amino-2-methyl-4-oxo-4H-quinazolin-3-yl)-piperidine-2,6-dione]
expression of Ikaros (Ikaros): inhibited
endogenous Aiolos (Aiolos [1]; Her^2+ cells (AU565, BT-474, EFM-192A and HCC1954)): inhibited
levels of Aiolos (Aiolos [1]; ZR 75-1 and AU565 cell lines, 24 hours after the treatment): reduced the levels of Aiolos
HIF1α induction in response to hypoxia (HIF1-α): inhibits
time at which reduction of overexpressed Aiolos begins to show (Aiolos [2]; AU565 cells overexpressing flag-Aiolos-myc): about 5 hours
inhibition of Aiolos with proteasome inhibitor MG-132 (Aiolos [2]; addition of MG-132): rescued
inhibitory effect on Aiolos expression (Aiolos [3]): showed inhibitory effect
expression of Aiolos (Aiolos [4]): inhibited
IL-10 (% of control) (IL-10): 480 % of control
Monkey HNSTD ([5]; 28-day toxicity study, monkey): 6 mg/m^2
Monkey HNSTD (highest non-severely toxic dose), Animal Dose ([5]; 28-day toxicity study, monkey): 0.5 mg base/kg/day and 0.5 mg mg base/kg/day
HED (mg/person) from monkey HNSTD ([5]; 60-kg human body weight): 10 mg mg base/person
HED (mg/kg) from monkey HNSTD ([5]; human equivalent dose): 0.16 mg mg base/kg
Starting Dose (mg) from monkey HNSTD ([5]; safety factor 6): 1.7 mg mg base
direct in vitro activity against tumor cells (tumor cells): limited direct in vitro activity
NFKB DNA binding activity (NFKB): partially inhibits
MCP-1 (% of control) (MCP-1): 236 % of control
expression of Aiolos (Aiolos [6]; absence of a proteasome inhibitor, 60, 120, 240, 500 and 100 nM): inhibit the expression of Aiolos
expression of Aiolos (Aiolos [6]; proteasome inhibitor present): little inhibition
Rat STD10 (severely toxic dose in 10% of the animals), Animal Dose ([7]; 28-day toxicity study, rat): 300 mg mg base/kg/day
HED (mg/person) from rat STD10 ([7]; 60-kg human body weight): 2900 mg mg base/person
HED (mg/kg) from rat STD10 ([7]; human equivalent dose): 48 mg mg base/kg
Starting Dose (mg) from rat STD10 ([7]; safety factor 10): 290 mg mg base
RANTES (% of control) (RANTES): 131 % of control
single agent activity in xenografts [8]: single agent activity was observed
